Data reported in patent US20260263468A1 (Fundación Instituto de Investigación Sanitaria Fundación …, priority 2023, published 2026).

Legend:
C2C12 cells = assay: Cell proliferation assay (AlamarBlue); format: cell-based; settings: 10^−9-10^−5 M, 24 and 48 hours
Procedure: C2C12 cells (American Type Culture Collection, ATCC, Manassas, VA, USA) were cultured in DMEM supplemented with 10% FBS and 1% penicillin-streptomycin. To induce myogenic differentiation, 70% confluence C2C12 cells were culture in DMEM containing 2% HS (horse serum). Cells were maintained in a humidified chamber at 37° C., in 95% air and 5% CO2. Media was replaced with fresh every 48h.
C2C12 cells were plated in 96-well plates (Corning, Cultek, Spain) (12.500 cells/well). Cell proliferation was measured using AlamarBlue assay according to the manufacturer's instructions, at 24 and 48 h of myogenic differentiation.

C2C12 [1] = assay: Western blot of myogenesis markers during differentiation; format: cell-based; settings: 1 μM
Procedure: Cells were lysed with RIPA buffer and protein concentration was determined by BCA. […] Variations in intensity were expressed as % of basal (day 0) and expressed as mean±SEM. All results were calculated as a percentage of non-differentiated controls to minimize the intrinsic variation among different experiments.

C2C12 [2] = assay: cAMP concentration (ELISA); format: cell-based; settings: myoblast, 1 μM, 5 minutes; control 0.58±0.13
Procedure: CAMP concentration was measured using the colorimetric cAMP ELISA kit following manufacture protocol for acetylated cell lysates (Cell Biolabs, San Diego, USA). Absorbance was measured at 450 nm using a microplate reader Tecan Spark 20M.
The CAMP signaling cascade has been linked to a delay in the onset of age-related muscle loss.

[3] = tested on: K/B×N serum transfer-induced arthritis; assay: Tissues weight at collection, acute model of inflammation; format: in vivo, C57BL/6J mice
Procedure: Data collected for absolute weight are correlated with mouse weight to obtain relative weight (*indicates differences with the sham group and $ indicates differences with the arthritic group). WAT, white adipose tissue; BAT, brown adipose tissue. Values are presented as mean±SEM. […]
Mice were weighted weekly. Development of arthritis was assessed daily, and the severity of arthritis was assessed in each paw on a 4-point scale defined as follows: 0=normal appearance, 1=localized edema/erythema over one surface of the paw, 2=edema/erythema involving more than one surface of the paw, and 3-4=marked edema/erythema involving the whole paw. Scores of all 4 paws were added for a composite score. All motor activity tests were performed prior to serum inoculation and at the highest point of inflammation. Mice were euthanized on day 16 for acute inflammation model or 30 days for Inflammation resolved model. A representative photo of body structure and muscle of pawn were taken on this day. Gastronemius was collected for protein and RNA extraction. Tibialis and soleus were included for freeze histology following the indications of H. Meng (see references in ref. 44). Bones were prepared for micro-computed tomography (microCT) and histology. Blood was drawn and serum was isolated for measurement of inflammatory cytokines and C-reactive protein (CPR).

[4] = tested on: K/B×N serum transfer-induced arthritis; assay: Serum CRP ELISA and serum cytokine array; format: in vivo, C57BL/6J mice; settings: arthritic mice + dipyridamole
Procedure: For this purpose, they performed an array of protein expression of pro- and anti-inflammatory cytokines and chemokines in serum by using the Mouse Cytokine Array Q1 (RayBiotech, EEUU) which, simultaneously, detects 20 cytokines. The cytokines concentration was measured by fluorescence using GenePix following manufacture protocol for serum samples.
CRP concentration was measured using the colorimetric Mouse CRP ELISA kit following manufacture protocol for serum samples (Crystal Chem, USA). Absorbance was measured at 450 nm using a microplate reader Tecan Spark 20M.
Serum CRP were determined by Mouse CRP ELISA Kit (Crystal Chem, #80634), according to the instructions of the manufacturer. Absorbance was measured at 450 nm using a microplate reader Tecan Spark 20M.
(§1) The cytokines concentration was measured by fluorescence using GenePix 4000B following manufacture protocol for serum and frozen samples. Serum samples were used at 2-fold sample dilution. Frozen gastronemius were crushed using a mortar and a pestle cooled with liquid nitrogen. Next, gastronemius were homogenized in a sonicator and the protein isolated in the supernatant quantified with BCA assay. We used 100 μL (1 mg/ml) of total gastronemius protein for cytokine and chemokine array assay.

[5] = tested on: K/B×N serum transfer-induced arthritis; assay: Cytokine and chemokine array in gastronemius muscle; format: in vivo, C57BL/6J mice; settings: acute model, RA + Dipy
Procedure: as §1

[6] = mice, dipyridamole 25 mg/Kg/day with tenofovir; cited from earlier work
C2C12 myoblast cell line = assay: Western blot of C2C12 under pro-inflammatory conditions with/without dipyridamole
Procedure: Western blot was performed as described above.
Protein concentration was determined by BCA. 4 μg for cells and 40-50 μg for tissue samples of protein was subjected to 6-15% SDS-PAGE and transferred to a nitrocellulose membrane. Membranes were blocked with 3% BSA in Tris-buffered saline containing 0.1% Tween-20 (TBS-T). After that, the membranes were incubated overnight at 4° C. with the primary antibodies for A2A, A2B, MHC (Thermo Fisher Scientific, Waltham, USA), AMPK, pAMPK (Thr172), p21, p16 (Cell signaling, Danvers, EEUU) (1:1000 each) and Pax-7 (Developmental Studies Hybridoma Bank, Houston, EEUU) (1:500 each).

[7] = tested on: K/B×N serum transfer-induced arthritis; assay: Histological analysis of tibialis anterior (H&E, ATPase, picrosirius red, oil red O)
Procedure: Analysis of tibialis tissue structure by Hematoxylin and eosin (H&E) staining was performed. Frozen samples were sectioned at 10 μm. For staining and subsequent processing by image segmentation we followed the indications established by Liu et al (53). Briefly, sections were brought from −80° C. to room temperature and immediately immersed in methanol for 30 min to improve fixation and stained with Hematoxylin and eosin. Image analysis was performed with ImagePro 2.2 using the Muscle Morphometry plugin following Liu's protocol.
H&E staining was performed on frozen tibialis anterior (TA). Frozen samples were section at 10 μm. For staining and subsequent processing by image segmentation we followed the indications established by Liu et al (53). Briefly, sections were brought from −80° C. to room temperature and immediately immersed in methanol for 30 min to improve fixation and stained with hematoxylin and eosin. Image analysis of cross-sectional area (CSA) was performed with ImagePro 2.2 using the Muscle Morphometry plugin following Liu's protocol.
ATPase staining was performed in TA 10 μM cross-sections as previously described (2). Briefly, cross-sections were incubated 45 min in 0.1 M glycine/NaCl buffer pH 9.4 with 0.75 M CaCl2 and 5 mg ATP (Sigma-Aldrich). After rinsed in distilled water, sections were incubated in 2% cobalt chloride, and then immersed in dilute (1/10) ammonium chloride to develop type 1 (white) and type 2 (black) fibers. After dehydration, sections were mounted with DPX mounting medium (VWR International Ltd., Lutterworth, UK). The quantification of the fiber types was performed using the Image J software package 1.49v (NIH, Bethesda, MD, USA).
Picrosirius Red staining was performed in TA to visualized tissue fibrosis. Slides were air-drayed for 30 min at room temperature and fixed in PFA 4% 30 min. Next, the sections were incubated for 90 min in picrosirius red solution (Polysciences) and immersed immediately in 0.1M HCl solution (Polysciences) for 1 min. The sections were washed 2 times in H2O, dehydrated in serial dilutions of alcohol and mounted with DPX. Bright field and polarized light images were taken. The quantification of infiltration of collagen I were performed using the Image J software package 1.49v (NIH, Bethesda, MD, USA) on polarized images.
To visualize triglycerides infiltration in the muscle, serial frozen TA 10 μm cross-sections were thaw and air dry and fixed in PFA 4% for 1 h before oil red O staining. […] Then we isolate the oil red staining retained in muscle with 200 μL of isopropanol in agitation to quantify the fat infiltrated in every muscle. The oil red released was read from 75 μL samples in a 96-well plate by Tecan Spark 20M in duplicate at 500 nm.

Compound: OCCN(CCO)c1nc(N2CCCCC2)c2nc(N(CCO)CCO)nc(N3CCCCC3)c2n1 [dipyridamole, 2,6-bis(Diethanolamino)-4,8-dipiperidinopyrimido[5,4-d]pyrimidine]
- Proliferation (C2C12 cells): No significant changes
- PAX7 protein expression (% of basal) (C2C12 [1]; day 1, control 315±58%): revert the effect to control levels
- MyoD protein expression (% of basal) (C2C12 [1]; day 2, control 182±8%): 162±29%
- Myf5 protein expression (% of basal) (C2C12 [1]; first 2 days of differentiation): did not modulate
- cAMP levels (C2C12 [2]): 0.85±0.17
- BAT, Absolute weight ([3]; RA + Dipy): 0.157 ± 0.005 g
- EDL, Absolute weight ([3]; RA + Dipy): 0.010 ± 0.013 g
- Gastronemius, Absolute weight ([3]; RA + Dipy): 0.123 ± 0.004 g
- Quadriceps, Absolute weight ([3]; RA + Dipy): 0.15 ± 0.01 g
- Soleus, Absolute weight ([3]; RA + Dipy): 0.008 ± 0.001 g
- Tibialis, Absolute weight ([3]; RA + Dipy): 0.056 ± 0.004 g
- WAT, Absolute weight ([3]; RA + Dipy): 0.198 ± 0.018 g
- Bodyweight, Absolute weight ([3]; RA mice + Dipy 25 mg/kg/day): 22.12 ± 0.18 g
- BAT, Absolute weight ([3]; healthy mice, Dipy alone): 0.16 ± 0.003 g
- EDL, Absolute weight ([3]; healthy mice, Dipy alone): 0.011 ± 0.008 g
- Gastronemius, Absolute weight ([3]; healthy mice, Dipy alone): 0.174 ± 0.007 g
- Soleus, Absolute weight ([3]; healthy mice, Dipy alone): 0.011 ± 0.002 g
- Tibialis, Absolute weight ([3]; healthy mice, Dipy alone): 0.08 ± 0.009 g
- WAT, Absolute weight ([3]; healthy mice, Dipy alone): 0.22 ± 0.02 g
- Bodyweight, Absolute weight ([3]; healthy mice, Dipy alone 25 mg/kg/day): 24.26 ± 1.72 g
- Serum IL-9 ([4]; arthritic 4.3±1.8): 13.1 ± 2.6 pg/mL
- Serum VEGF ([4]; arthritic 90±13.1): 221 ± 40.3 pg/mL
- Serum IL-10 ([4]; arthritic 117.6±5.2): 166 ± 10 pg/mL
- Serum CRP ([4]; arthritic 4098±560, sham 2861±893): 3543 ± 586 ng/mL
- Muscle IL-1α [5]: 3.5 ± 0.2 pg/mL
- Muscle IL-1β [5]: 13.9 ± 1.9 $$ pg/ml
- Muscle IL-2 [5]: 8 ± 2.8 pg/mL
- Muscle IL-3 [5]: 1 ± 0.2 pg/mL
- Muscle IL-4 [5]: 23 ± 1.9 pg/mL
- Muscle IL-5 [5]: 5.5 ± 0.8 pg/mL
- Muscle IL-6 [5]: 6.9 ± 0.6 **/$ pg/ml
- Muscle IL-9 [5]: 13.1 ± 2.5 pg/mL
- Muscle IL-10 [5]: 32.5 ± 2.3 **/ $ pg/ml
- Muscle IL-13 [5]: 11.3 ± 0.9 pg/mL
- Muscle IL-17 [5]: 7 ± 1.3 pg/mL
- Muscle INFγ [5]: 48.7 ± 4.8 */$ pg/ml
- Muscle KC (CXCL1) [5]: 1.2 ± 0.7 pg/mL
- Muscle M-CSF [5]: 11.8 ± 1.6 pg/mL
- Muscle RANTES [5]: 4.7 ± 0.5 pg/mL
- Muscle TNF-α [5]: 24.6 ± 1.2 pg/mL
- Muscle VEGF [5]: 122 ± 12.9 pg/mL
- Muscle MCP-1 ([5]; listed as Dipy): 43.8 ± 9.9 */$ pg/ml
- Muscle MCP-1 ([5]; listed as dipy): 43.8 ± 9.9 pg/mL
- Body weight (tenofovir-induced loss) [6]: recovered
- CREB expression (vs 100% basal) (C2C12 myoblast cell line; 24 h of differentiation): 361.5±68.8%
- AMPK activation (C2C12 myoblast cell line; cytokine/LPS ± dipyridamole 1 μM, day 4, control 222.7±23.9%): did not increase AMPK levels
- PKAα expression (C2C12 myoblast cell line; day 4, dipyridamole combined with IL-6, IL-6 alone 107±5.8%): 245.3±34.3%
- PKAα expression (C2C12 myoblast cell line; day 4, dipyridamole combined with INFγ, INFγ alone 101.7±3.7%): 245.3±34.3%
- PKAα expression (C2C12 myoblast cell line; day 4, control 213.9±21.6%): 245.3±34.3%
- Myogenesis (PAX7, MHC) (C2C12 myoblast cell line; dipyridamole 1 μM alone): did not modulate myogenesis
- Collagen I fibers (Picrosirius Red) ([7]; RA+Dipy, RA 111.1±1.20%, Sham 100±1.26%): 94.78±0.98%
- Fat infiltrate in TA (Oil Red staining) ([7]; RA+Dipy, RA 170.1±6.94%, Sham 100±3.97%): 99.21±7.217%
- Tibialis muscle fiber area ([7]; arthritic mice + dipyridamole, acute model, arthritic 508±20, sham 1211±43): 1305±35 μm^2
- Fat infiltration across whole muscle (TA and EDL) ([7]; healthy mice, dipy alone): able to decrease this fat infiltration
